Measured values reported in publication PMC8241580 (Bioorganic Chemistry, 2021).
“And” between values parts separate entries of the source, which are not always exact repeats. Equal entries are not always repeated.

How the values were obtained:
SARS-CoV-2 = assay: Antiviral assay, virus-induced cytopathic effect; format: cell-based, SARS-CoV-2 (hCoV-19/Egypt/NRC-03/2020); conditions: CC50 VERO-E6 / IC50 SARS-CoV-2
c-kit = c-kit (Homo sapiens, UniProt P10721); assay: c-Kit ADP-Glo kinase assay; format: biochemical
VEGFR-2 = VEGFR-2 (Homo sapiens, UniProt P35968); assay: VEGFR-2; format: biochemical; conditions: for VEGFR-2 inhibitory potency relative to Sunitinib: ratio of IC50 values
[1] = system: HCT116 (colon) cancer cell line; assay: MTT antiproliferative assay, HCT116; format: cell-based; conditions: Homo sapiens, HCT-116, 72 h, read-out: IC50 (μM) ± SE HCT116
MCF7 cells [2] = assay: Cell cycle analysis by PI-flow cytometry; format: cell-based; conditions: MCF7, compound at its IC50; for DNA content (%) Pre-G1: control 1.49; for DNA content (%) G2/M: control 5.09; for DNA content (%) S: control 41.12; for DNA content (%) G0-G1: control 53.79
[3] = system: PaCa-2 (pancreatic) cancer cell line; assay: MTT antiproliferative assay, PaCa-2; format: cell-based; conditions: for IC50: PaCa-2, 72 h, read-out: IC50 (μM) ± SE PaCa-2; for Potency against PaCa2 relative to Sunitinib: ratio of IC50 values
[4] = system: MCF7 (breast) cancer cell line; assay: MTT antiproliferative assay, MCF7; format: cell-based; conditions: for IC50: Homo sapiens, MCF7, 72 h, read-out: IC50 (μM) ± SE MCF7
[5] = system: chick embryo chorioallantoic membrane (CAM) blood vessels; assay: CAM assay; format: in vivo, chicken; conditions: 20 μl of 660 μM, 3 days of treatment, n = 4, vehicle control 14.00 ± 3.00
MCF7 cells [6] = assay: Annexin V-FITC apoptosis/necrosis study; format: cell-based; conditions: MCF7, compound at its IC50; for Apoptosis (%) Late: control 0.13; for Apoptosis (%) Early: control 0.49; for Necrosis: control 0.87; for Apoptosis (%) Total: control 1.49

Sequence of c-kit (P10721 26-976): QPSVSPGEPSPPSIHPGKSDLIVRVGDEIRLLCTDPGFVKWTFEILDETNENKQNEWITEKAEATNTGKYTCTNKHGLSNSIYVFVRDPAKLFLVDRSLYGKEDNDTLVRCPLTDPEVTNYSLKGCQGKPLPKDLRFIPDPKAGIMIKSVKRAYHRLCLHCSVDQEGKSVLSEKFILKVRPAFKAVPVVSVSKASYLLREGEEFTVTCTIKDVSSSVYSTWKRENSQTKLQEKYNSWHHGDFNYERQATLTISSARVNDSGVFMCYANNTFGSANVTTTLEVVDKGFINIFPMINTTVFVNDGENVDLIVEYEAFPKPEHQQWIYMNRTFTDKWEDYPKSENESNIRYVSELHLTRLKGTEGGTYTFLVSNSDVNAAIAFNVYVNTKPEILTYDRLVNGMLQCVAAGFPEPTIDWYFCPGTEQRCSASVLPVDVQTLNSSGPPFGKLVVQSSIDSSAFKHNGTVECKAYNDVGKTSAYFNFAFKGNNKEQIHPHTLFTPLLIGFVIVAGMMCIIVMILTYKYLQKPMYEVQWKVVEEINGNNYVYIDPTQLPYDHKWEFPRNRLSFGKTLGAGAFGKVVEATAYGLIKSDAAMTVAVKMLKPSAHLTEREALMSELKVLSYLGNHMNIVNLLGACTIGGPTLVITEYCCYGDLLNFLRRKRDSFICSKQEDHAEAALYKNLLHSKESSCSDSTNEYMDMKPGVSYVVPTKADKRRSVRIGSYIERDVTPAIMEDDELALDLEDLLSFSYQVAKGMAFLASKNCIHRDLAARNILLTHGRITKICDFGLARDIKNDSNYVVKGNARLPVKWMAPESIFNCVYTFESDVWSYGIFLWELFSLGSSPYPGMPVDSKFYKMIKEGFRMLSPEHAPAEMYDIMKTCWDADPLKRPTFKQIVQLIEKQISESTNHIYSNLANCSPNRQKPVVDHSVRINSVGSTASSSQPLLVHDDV
Sequence of VEGFR-2 (P35968 20-1356): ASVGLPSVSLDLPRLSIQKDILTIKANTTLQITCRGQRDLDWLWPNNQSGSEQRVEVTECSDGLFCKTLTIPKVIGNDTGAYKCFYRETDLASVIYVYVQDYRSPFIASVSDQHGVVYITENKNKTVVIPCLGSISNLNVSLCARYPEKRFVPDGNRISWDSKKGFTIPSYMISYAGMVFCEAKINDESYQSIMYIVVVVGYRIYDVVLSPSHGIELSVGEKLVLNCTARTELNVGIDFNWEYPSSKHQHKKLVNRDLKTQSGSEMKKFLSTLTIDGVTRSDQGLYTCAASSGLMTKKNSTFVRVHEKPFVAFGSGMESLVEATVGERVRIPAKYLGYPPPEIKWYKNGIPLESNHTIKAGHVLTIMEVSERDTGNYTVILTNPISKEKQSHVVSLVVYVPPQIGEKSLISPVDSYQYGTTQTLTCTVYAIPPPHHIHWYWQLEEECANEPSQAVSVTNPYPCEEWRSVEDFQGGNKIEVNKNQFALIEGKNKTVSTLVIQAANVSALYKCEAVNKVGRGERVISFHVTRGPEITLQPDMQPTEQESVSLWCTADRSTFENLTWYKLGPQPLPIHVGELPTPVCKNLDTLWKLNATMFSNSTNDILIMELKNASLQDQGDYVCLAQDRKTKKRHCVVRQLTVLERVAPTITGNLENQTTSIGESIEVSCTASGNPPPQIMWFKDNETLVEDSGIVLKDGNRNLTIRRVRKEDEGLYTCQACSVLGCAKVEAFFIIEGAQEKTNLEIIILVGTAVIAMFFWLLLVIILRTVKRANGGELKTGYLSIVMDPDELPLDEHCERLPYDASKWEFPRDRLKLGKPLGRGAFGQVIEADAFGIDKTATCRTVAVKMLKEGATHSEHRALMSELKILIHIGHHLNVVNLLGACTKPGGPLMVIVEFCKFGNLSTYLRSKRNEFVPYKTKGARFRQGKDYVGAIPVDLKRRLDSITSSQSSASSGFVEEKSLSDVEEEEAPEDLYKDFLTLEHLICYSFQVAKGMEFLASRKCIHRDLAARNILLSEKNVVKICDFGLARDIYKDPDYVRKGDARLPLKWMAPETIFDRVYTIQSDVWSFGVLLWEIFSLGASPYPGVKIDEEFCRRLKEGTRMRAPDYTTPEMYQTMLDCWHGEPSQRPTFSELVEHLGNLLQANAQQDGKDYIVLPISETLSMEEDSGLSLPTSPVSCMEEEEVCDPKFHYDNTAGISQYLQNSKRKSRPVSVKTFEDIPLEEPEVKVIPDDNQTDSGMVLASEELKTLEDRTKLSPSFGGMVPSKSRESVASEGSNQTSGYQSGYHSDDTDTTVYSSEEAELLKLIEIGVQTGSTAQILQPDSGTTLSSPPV

SMILES | SI (Selectivity index/therapeutical index) = CC50/IC50 (SARS-CoV-2) | IC50 (c-kit) [µM] | IC50 (VEGFR-2) [µM] | IC50 [1] [µM] | DNA content (%) G2/M (MCF7 cells [2]) [%] | DNA content (%) S (MCF7 cells [2]) [%] | DNA content (%) G0-G1 (MCF7 cells [2]) [%] | IC50 [3] [µM] | IC50 [4] [µM] | Mean diameter of blood vessels (mm ± SD) [5] | Potency against PaCa2 relative to Sunitinib [3] | further results
NC(=O)c1nc(F)c[nH]c1=O [Favipiravir, reference compound] | 1.9 | – | – | – | – | – | – | – | – | – | – | –
CS(=O)(=O)Oc1ccc(C(=O)/C=C2/C(=O)Nc3ccccc32)cc1 [Compound 6a, (E)-4-[2-(2-Oxoindolin-3-ylidene)acetyl]phenyl methanesulfonate] | 362.5 | 0.12 ± 0.012 | 0.054 ± 0.0054 | 16.4 ± 0.7 | 2.67 | 43.25 | 54.08 | 8.3 ± 0.44 | 6.85 ± 0.37 | 3.20 ± 1.00 mm | – | DNA content (%) Pre-G1 (MCF7 cells [2]): 34.71%
CCN(CC)CCCC(C)Nc1ccnc2cc(Cl)ccc12 (stereo not drawn) [Chloroquine, reference compound] | 19.1 | – | – | – | – | – | – | – | – | – | – | –
CCS(=O)(=O)N(c1ccc(C(=O)/C=C2/C(=O)Nc3ccc(Cl)cc32)cc1)S(=O)(=O)CC [Compound 10c, (E)-N-{4-[2-(5-Chloro-2-oxoindolin-3-ylidene)acetyl]phenyl}-N-(ethylsulfonyl)ethanesulfonamide] | 75.5 | 0.0817 ± 0.0082 | 0.0534 ± 0.0053 | > 50 | – | – | – | 6.18 ± 0.32 | 4.43 ± 0.47 | 5.0 mm and 5.00 ± 0.40 mm | – | VEGFR-2 inhibitory potency relative to Sunitinib (VEGFR-2): 0.89 fold; Potency against MCF7 relative to Sunitinib ([4]; ratio of IC50 values): 0.9 fold
CCN(CC)CCNC(=O)c1c(C)[nH]c(/C=C2\C(=O)Nc3ccc(F)cc32)c1C [Sunitinib, reference compound] | – | – | – | 5.03 ± 0.3 | – | – | – | 16.9 ± 0.95 | – | 5 mm and 5.0 mm and 5.00 ± 0.71 mm | – | –
CCS(=O)(=O)Oc1ccc(C(=O)/C=C2/C(=O)Nc3ccc(Cl)cc32)cc1 [Compound 6c, (E)-4-[2-(5-Chloro-2-oxoindolin-3-ylidene)acetyl]phenyl ethanesulfonate] | 26.4 | 0.0723 ± 0.0072 | 0.0369 ± 0.0037 | 5.33 ± 0.46 | – | – | – | 4.99 ± 0.29 | 4.28 ± 0.51 | 5.1 mm and 5.13 ± 0.90 mm | about 3.4 folds | VEGFR-2 inhibitory potency relative to Sunitinib (VEGFR-2): 1.3 fold
CS(=O)(=O)N(c1ccc(C(=O)/C=C2/C(=O)Nc3ccccc32)cc1)S(C)(=O)=O [Compound 10a, (E)-N-(Methylsulfonyl)-N-{4-[2-(2-oxoindolin-3-ylidene)acetyl]phenyl}methanesulfonamide] | 7.4 | 0.103 ± 0.0103 | 0.102 ± 0.0102 | 21 ± 1.75 | 4.11 | 54.18 | 41.71 | 6.91 ± 0.89 | 6.07 ± 0.83 | 3.50 ± 0.50 mm | – | DNA content (%) Pre-G1 (MCF7 cells [2]): 28.25%
CCS(=O)(=O)N(c1ccc(C(=O)/C=C2/C(=O)Nc3ccccc32)cc1)S(=O)(=O)CC [Compound 10b, (E)-N-(Ethylsulfonyl)-N-{4-[2-(2-oxoindolin-3-ylidene)acetyl]phenyl}ethanesulfonamide] | 165.6 | 0.185 ± 0.0185 | 0.0741 ± 0.0074 | 13.8 ± 1.06 | – | 54.18 | – | 5.08 ± 0.57 | 4.15 ± 0.78 | 2.70 ± 0.40 mm | ~3.3 folds | Apoptosis (%) Late (MCF7 cells [6]): 17.15%; Apoptosis (%) Early (MCF7 cells [6]): 4.03%; Necrosis (MCF7 cells [6]): 7.07%; Apoptosis (%) Total (MCF7 cells [6]): 28.25%; Cell cycle phase arrested (MCF7 cells [2]): arrest the tested cell at S phase; Increment in S phase relative to control (MCF7 cells [2]): about 13%
CCS(=O)(=O)Oc1ccc(C(=O)/C=C2/C(=O)Nc3ccccc32)cc1 [Compound 6b, (E)-4-[2-(2-Oxoindolin-3-ylidene)acetyl]phenyl ethanesulfonate] | 23.8 | 0.248 ± 0.0248 | 0.0989 ± 0.0099 | 12.8 ± 1.41 | 2.67 | 43.25 | 54.08 | 5.6 ± 0.57 | 4.25 ± 0.23 | 5.10 ± 1.00 mm | three time folds | Apoptosis (%) Late (MCF7 cells [6]): 22.91%; Apoptosis (%) Early (MCF7 cells [6]): 2.51%; Necrosis (MCF7 cells [6]): 9.29%; Apoptosis (%) Total (MCF7 cells [6]): 34.71%; Cell cycle phase arrested (MCF7 cells [2]): arrests the cell cycle at G1/S phase; Decrease in cell population at G2/M relative to control (MCF7 cells [2]): 47.5%
CCN(CCO)CCCC(C)Nc1ccnc2cc(Cl)ccc12 (stereo not drawn) [Hydroxychloroquine, reference compound] | 12.2 | – | – | – | – | – | – | – | – | – | – | –
